System: Arabidopsis first leaves
Assay: Abaxial epidermal cell number of first leaves of plants grown on HU
Format: in vivo, Arabidopsis thaliana
Details: for reduction in epidermal cell number: grown 3 weeks on 1 mM HU, first leaves
Protocol: The smr5 (SALK_100918) and smr7 (SALK_128496) alleles were acquired from the Arabidopsis Biological Research Center. The atm-1, atr-2 and sog1-1 mutants have been described previously (Garcia et al., 2003; Preuss and Britt, 2003; Culligan et al., 2004; Yoshiyama et al., 2009). Unless stated otherwise, plants of Arabidopsis thaliana (L.) Heyhn (ecotype Columbia), were grown under long-day conditions (16 hours of light, 8 hours of darkness) at 22° C. on half-strength Murashige and Skoog (MS) germination medium (Murashige and Skoog, 1962). Arabidopsis plants were treated with HU as described by Cools et al. (2011). For bleomycin treatments, five-day-old seedlings were transferred into liquid MS medium supplemented with 0.3 μg/mL bleomycin. For γ-irradiation treatments, five-day-old in vitro-grown plantlets were irradiated with γ-rays at a dose of 20 Gy. For light treatments, one-week-old seedlings were transferred to continuous high-light conditions (growth rooms kept at 22° C. with 24-hour day/0-hour night cycles and a light intensity of 300-400 μmol m^−2 s^−1) for 2 days, and subsequently retransferred to low-light conditions. The first leaf pair was harvested and incubated in 100% ethanol for epidermis cell drawing as described by De Veylder et al. (2001).
For leaf measurements, first leaves were harvested at 21 days after sowing on control medium, medium supplemented with 1 mM hydroxyurea or 0.3 μg/mL bleomycin. […] The total (blade) area was determined from images digitized directly with a digital camera (Olympus BX51 microscope) mounted on a binocular (Stemi SV 11; Zeiss). From scanned drawing-tube images of the outlines of at least 30 cells of the abaxial epidermis located between 25% to 75% of the distance between the tip and the base of the leaf, halfway between the midrib and the leaf margin, the following parameters were determined: total area of all cells in the drawing and total numbers of pavement and guard cells, from which the average cell area was calculated. […] For confocal microscopy, root meristems were analyzed 2 days after transfer using a Zeiss LSM 510 Laser Scanning Microscope and the LSM Browser version 4.2 software (Zeiss). […] GFP fluorescence was detected with the 488-nm line of an Argon laser. GFP and PI were detected simultaneously by combining the settings indicated above in the sequential scanning facility of the microscope. Acquired images were quantitatively analyzed with the ImageJ v1.45s software (on the World Wide Web at rsbweb.nih.gov/ij/) and Cell-o-Tape plug-ins (French et al., 2012). Chlorophyll a fluorescence parameters were measured using the IMAGING PAM M-Series Chlorofyll Fluorescence (Walz) and associated software. […]

NC(=O)NO [HU, hydroxyurea] was tested, and the “reduction in leaf size and cell number” value (SMR5^KO SMR7^KO double mutant, 1 mM HU, compared with single knockouts) was “even less”, the “reduction in epidermal cell number” value (SMR5^KO plants) was 29% and the “reduction in epidermal cell number” value (SMR7^KO plants) was 30%. For the same compound, the “reduction in epidermal cell number” value (control plants (Col-0)) was 47%.

Source: patent publication US20160272992A1, “PROTECTION OF PLANTS AGAINST OXIDATIVE STRESS” (priority 2013, published 2016)
